Assay results: PubChem BioAssay AID328 (DTP/NCI, 2004)
Values joined by “and” are separate entries in the source; they are usually repeats but may differ in a detail not shown here. Identical values can stand only once. Inconclusive results and toxic doses are left out.

Test system: BDF1 mice, P388 leukemia ip, median survival T/C
Test: NCI In Vivo Anticancer Drug Screen. Data for tumor model P388 Leukemia (intraperitoneal) in B6D2F1 (BDF1) mice
Details: endpoint: median survival time, higher = longer survival
Summary of the method: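 Survival ratio, drug arm over vehicle arm, in mice with a transplanted tumour.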

[1] = dose: 25.0 mg/kg/injection, schedule: Q01DX009 (ip), vehicle: saline with Tween-80
[2] = dose: 50.0 mg/kg/injection, schedule: Q01DX009 (ip), vehicle: saline with Tween-80
[3] = dose: 100.0 mg/kg/injection, schedule: Q04DX003 (ip), vehicle: saline with Tween-80
[4] = dose: 200.0 mg/kg/injection, schedule: Q04DX003 (ip), vehicle: saline with Tween-80
[5] = dose: 100.0 mg/kg/injection, schedule: Q01DX009 (ip), vehicle: saline with Tween-80
[6] = dose: 200.0 mg/kg/injection, schedule: Q01DX009 (ip), vehicle: saline with Tween-80
[7] = dose: 6.25 mg/kg/injection, schedule: Q01DX009 (ip), vehicle: Klucel (hydroxypropylcellulose) (HPC)
[8] = dose: 25.0 mg/kg/injection, schedule: Q01DX009 (ip), vehicle: Klucel (hydroxypropylcellulose) (HPC)
[9] = dose: 25.0 mg/kg/injection, schedule: Q04DX003 (ip), vehicle: Klucel (hydroxypropylcellulose) (HPC)
[10] = dose: 50.0 mg/kg/injection, schedule: Q01DX009 (ip), vehicle: Klucel (hydroxypropylcellulose) (HPC)
[11] = dose: 100.0 mg/kg/injection, schedule: Q01DX009 (ip), vehicle: Klucel (hydroxypropylcellulose) (HPC)
[12] = dose: 400.0 mg/kg/injection, schedule: Q04DX003 (ip), vehicle: Klucel (hydroxypropylcellulose) (HPC)
[13] = dose: 100.0 mg/kg/injection, schedule: Q04DX003 (ip), vehicle: Klucel (hydroxypropylcellulose) (HPC)
[14] = dose: 200.0 mg/kg/injection, schedule: Q01DX009 (ip), vehicle: Klucel (hydroxypropylcellulose) (HPC)
[15] = dose: 200.0 mg/kg/injection, schedule: Q04DX003 (ip), vehicle: Klucel (hydroxypropylcellulose) (HPC)

Compound: CNC(=O)NCCOC(=O)NC
- T/C (dose: 200.0 mg/kg/injection, schedule: Q01DX009 (ip), vehicle: saline): 100 % of control
- T/C (dose: 400.0 mg/kg/injection, schedule: Q01DX009 (ip), vehicle: saline): 100 % of control

Compound: O=[N+]([O-])C1(CO)COC(c2ccccc2)OC1 (centres undefined)
- T/C (dose: 100.0 mg/kg/injection, schedule: Q01DX009 (ip), vehicle: water): 109 % of control
- T/C (dose: 100.0 mg/kg/injection, schedule: Q04DX003 (ip), vehicle: water): 95 % of control
- T/C (dose: 200.0 mg/kg/injection, schedule: Q01DX009 (ip), vehicle: water): 86 % of control
- T/C (dose: 200.0 mg/kg/injection, schedule: Q04DX003 (ip), vehicle: water): 100 % of control
- T/C (dose: 400.0 mg/kg/injection, schedule: Q01DX009 (ip), vehicle: water): 90 % of control
- T/C (dose: 400.0 mg/kg/injection, schedule: Q04DX003 (ip), vehicle: water): 104 % of control

Compound: CCCCOP(=S)(N1CC1)N1CC1
- T/C (dose: 1.78 mg/kg/injection, schedule: Q01DX009 (ip), vehicle: saline with Tween-80): 113 % of control
- T/C (dose: 2.66 mg/kg/injection, schedule: Q01DX009 (ip), vehicle: saline with Tween-80): 150 % of control
- T/C (dose: 2.66 mg/kg/injection, schedule: Q04DX003 (ip), vehicle: saline with Tween-80): 99 % of control
- T/C (dose: 4.0 mg/kg/injection, schedule: Q01DX009 (ip), vehicle: saline with Tween-80): 186 % of control
- T/C (dose: 4.0 mg/kg/injection, schedule: Q04DX003 (ip), vehicle: saline with Tween-80): 95 % of control
- T/C (dose: 6.0 mg/kg/injection, schedule: Q01DX009 (ip), vehicle: saline with Tween-80): 216 % of control
- T/C (dose: 6.6 mg/kg/injection, schedule: Q01DX009 (ip), vehicle: saline with Tween-80): 194 % of control
- T/C (dose: 10.0 mg/kg/injection, schedule: Q01DX009 (ip), vehicle: saline with Tween-80): 211 % of control
- T/C (dose: 11.0 mg/kg/injection, schedule: Q01DX009 (ip), vehicle: saline with Tween-80): 212 % of control
- T/C (dose: 15.0 mg/kg/injection, schedule: Q01DX009 (ip), vehicle: saline with Tween-80): 108 % of control
- T/C [1]: 111 % of control
- T/C (dose: 37.5 mg/kg/injection, schedule: Q01DX009 (ip), vehicle: saline with Tween-80): 95 % of control
- T/C [2]: 96 % of control
- T/C [3]: 263 % of control
- T/C [4]: 104 % of control

Compound: c1ccc(-c2nnc3ncccn23)cc1
- T/C [2]: 96 % of control
- T/C [5]: 93 % of control
- T/C [6]: 93 % of control

Compound: ClC(Cl)(Cl)c1ccc(C(Cl)(Cl)Cl)cc1
- T/C (dose: 6.0 mg/kg/injection, schedule: Q01DX009 (ip), vehicle: Klucel (hydroxypropylcellulose) (HPC)): 100 % of control
- T/C [7]: 90 % of control
- T/C (dose: 12.0 mg/kg/injection, schedule: Q01DX009 (ip), vehicle: Klucel (hydroxypropylcellulose) (HPC)): 104 % of control
- T/C (dose: 12.5 mg/kg/injection, schedule: Q01DX009 (ip), vehicle: Klucel (hydroxypropylcellulose) (HPC)): 90 % of control
- T/C (dose: 12.5 mg/kg/injection, schedule: Q04DX003 (ip), vehicle: Klucel (hydroxypropylcellulose) (HPC)): 105 % of control
- T/C (dose: 22.0 mg/kg/injection, schedule: Q04DX003 (ip), vehicle: Klucel (hydroxypropylcellulose) (HPC)): 96 % of control and 118 % of control
- T/C [8]: 104 % of control
- T/C [9]: 120 % of control
- T/C (dose: 33.0 mg/kg/injection, schedule: Q04DX003 (ip), vehicle: Klucel (hydroxypropylcellulose) (HPC)): 119 % of control and 122 % of control
- T/C [10]: 90 % of control and 100 % of control
- T/C (dose: 75.0 mg/kg/injection, schedule: Q04DX003 (ip), vehicle: Klucel (hydroxypropylcellulose) (HPC)): 100 % of control
- T/C [11]: 100 % of control
- T/C (dose: 150.0 mg/kg/injection, schedule: Q04DX003 (ip), vehicle: Klucel (hydroxypropylcellulose) (HPC)): 109 % of control
- T/C (dose: 250.0 mg/kg/injection, schedule: Q04DX003 (ip), vehicle: Klucel (hydroxypropylcellulose) (HPC)): 100 % of control
- T/C [12]: 104 % of control

Compound: COCCCNC1=C(C#N)C(=O)NC(c2cccs2)S1 (centres undefined)
- T/C [2]: 100 % of control
- T/C [5]: 117 % of control
- T/C [6]: 121 % of control

Compound: CC(=N/O)/C(C)=N\O
- T/C [7]: 110 % of control
- T/C [8]: 95 % of control
- T/C [9]: 95 % of control
- T/C [10]: 110 % of control and 120 % of control
- T/C (dose: 75.0 mg/kg/injection, schedule: Q01DX009 (ip), vehicle: Klucel (hydroxypropylcellulose) (HPC)): 100 % of control
- T/C [11]: 120 % of control
- T/C [13]: 95 % of control
- T/C (dose: 100.0 mg/kg/injection, schedule: Q04DX003 (ip), vehicle: other): 100 % of control

Compound: C=C1C(=O)OC2CC3(C)CC(O)C(O)C(=C)C3CC12 (centres undefined)
- T/C (dose: 25.0 mg/kg/injection, schedule: Q01DX009 (ip), vehicle: saline): 104 % of control
- T/C (dose: 50.0 mg/kg/injection, schedule: Q01DX009 (ip), vehicle: saline): 104 % of control
- T/C (dose: 100.0 mg/kg/injection, schedule: Q01DX009 (ip), vehicle: saline): 104 % of control

Compound: CCCCC(=O)NN
- T/C (dose: 12.5 mg/kg/injection, schedule: Q04DX003 (ip), vehicle: saline with Tween-80): 99 % of control
- T/C (dose: 25.0 mg/kg/injection, schedule: Q04DX003 (ip), vehicle: saline with Tween-80): 103 % of control
- T/C (dose: 50.0 mg/kg/injection, schedule: Q04DX003 (ip), vehicle: saline with Tween-80): 110 % of control
- T/C [3]: 100 % of control
- T/C [4]: 91 % of control

Compound: COc1cccc2ccc(CC(O)(c3ccccc3)c3ccccc3)nc12
- T/C [1]: 91 % of control
- T/C [2]: 100 % of control
- T/C [5]: 100 % of control

Compound: COc1cc(N(C)C)c(OC)cc1C=O
- T/C [10]: 100 % of control
- T/C [11]: 90 % of control
- T/C [13]: 95 % of control
- T/C [14]: 109 % of control
- T/C [15]: 95 % of control
- T/C [12]: 100 % of control

Compound: CCCCC(=O)c1ccc(Cl)cc1
- T/C [11]: 105 % of control
- T/C [13]: 104 % of control
- T/C [14]: 110 % of control
- T/C [15]: 100 % of control
- T/C (dose: 400.0 mg/kg/injection, schedule: Q01DX009 (ip), vehicle: Klucel (hydroxypropylcellulose) (HPC)): 115 % of control
- T/C [12]: 100 % of control

Compound: NCC(O)COc1ccccc1N (centres undefined)
- T/C (dose: 3.0 mg/kg/injection, schedule: Q01DX009 (ip), vehicle: saline): 100 % of control
- T/C (dose: 3.0 mg/kg/injection, schedule: Q04DX003 (ip), vehicle: saline): 108 % of control and 109 % of control
- T/C (dose: 6.0 mg/kg/injection, schedule: Q01DX009 (ip), vehicle: saline): 100 % of control
- T/C (dose: 6.0 mg/kg/injection, schedule: Q04DX003 (ip), vehicle: saline): 95 % of control and 109 % of control
- T/C (dose: 12.0 mg/kg/injection, schedule: Q01DX009 (ip), vehicle: saline): 96 % of control
- T/C (dose: 12.0 mg/kg/injection, schedule: Q04DX003 (ip), vehicle: saline): 100 % of control and 113 % of control

Compound: CC(=O)CC(=O)N1CCCCCC1
- T/C [5]: 89 % of control
- T/C [3]: 109 % of control
- T/C [6]: 92 % of control
- T/C [4]: 90 % of control
- T/C (dose: 400.0 mg/kg/injection, schedule: Q01DX009 (ip), vehicle: saline with Tween-80): 107 % of control
- T/C (dose: 400.0 mg/kg/injection, schedule: Q04DX003 (ip), vehicle: saline with Tween-80): 104 % of control

Compound: COC12C(COC(N)=O)C3=C(C(=O)C(C)=C(N4CC4)C3=O)N1CC1NC12 (centres undefined)
- T/C (dose: 0.21 mg/kg/injection, schedule: Q04DX003 (ip), vehicle: saline with Tween-80): 235 % of control
- T/C (dose: 0.33 mg/kg/injection, schedule: Q04DX003 (ip), vehicle: saline with Tween-80): 200 % of control
- T/C (dose: 0.5 mg/kg/injection, schedule: Q04DX003 (ip), vehicle: saline with Tween-80): 190 % of control
- T/C (dose: 0.75 mg/kg/injection, schedule: Q04DX003 (ip), vehicle: saline with Tween-80): 255 % of control

Compound: CCC1CN2CCc3cc(OC)c(OC)cc3C2CC1C#N (centres undefined)
- T/C (dose: 12.5 mg/kg/injection, schedule: Q01DX009 (ip), vehicle: saline with Tween-80): 89 % of control
- T/C [1]: 89 % of control
- T/C [2]: 86 % of control

Compound: Cc1cccc(C(=O)Cc2cccc(C#N)c2)c1
- T/C [2]: 113 % of control
- T/C [5]: 99 % of control
- T/C [6]: 96 % of control

Compound: CCOC(=O)c1cc(OC(C)=O)c2c(ccc3ccccc32)c1C
- T/C [13]: 91 % of control
- T/C [12]: 91 % of control
